# According to patent US9828630B2, “Methods of enhancing genetic diagnosis” (BioLamina AB, priority 2011, dated 2017):
# Key:
# human ES cells = assay: Real-time quantitative RT-PCR / marker expression of pluripotency and differentiation markers; type: cell-based
# Method: Total RNA was isolated and cDNA was synthesized as described in Rodin et al., Nature Biotechnol., vol. 28, pp. 611-615 (2010). Real-time quantitative RT-PCR Taqman assays were performed using the Applied Biosystems 7300 Real-Time PCR System. All reactions were done in quadruplicate with predeveloped gene expression assay mix (Applied Biosystems) containing primers and a probe for the mRNA of interest. Additional reactions for each experiment included predeveloped gene expression assay mix for GAPDH, used to normalize the RNA input. All data were analyzed with 7300 System SDS Software version 1.4.
# Total RNA was isolated using Absolutely RNA Microprep Kit (Stratagene, La Jolla Calif., www.stratagene.com) according to the manufacturer's instructions. cDNA was synthesized using 0.2 μg of total RNA in 20 μl reaction mixture, containing oligo(dT)12-18 primers and Superscript II reverse transcriptase (GIBCO Invitrogen Corporation), according to the manufacturer's instructions. Real-time quantitative RT-PCR Taqman assays were performed using the Applied Biosystems 7300 Real-Time PCR System (Applied Biosystems, Foster City, Calif.). All reactions were done in quadruplicates with the use of a pre-developed gene expression assay mix (Applied Biosystems) containing primers and a probe for the mRNA of interest. […] All data was analyzed with 7300 System SDS Software v 1.4.
# hES cell lines = assay: Karyotyping; type: cell-based, human; conditions: HS181 12 and H1 10 passages in O3; H1 7 passages in TeSR2
# Method: Karyotyping of the cell lines was carried out using standard Q-banding techniques. Samples of cells were treated with colcemid KaryoMAX (0.1 μg/ml; Gibco Invitrogen Corporation) for up to 4 hours, followed by dissociation with Trypsin/EDTA solution (Gibco Invitrogen Corporation). The cells were pelleted via centrifugation and re-suspended in pre-warmed 0.0375M KCl hypotonic solution and incubated for 10 minutes. Following centrifugation, the cells were resuspended in fixative (3:1 methanol:acetic acid). Metaphase spreads were prepared on glass microscope slides and G-banded by brief exposure to trypsin and stained with 4:1 Gurr's/Leishmann's stain (Sigma-Aldrich Co.). A minimum of 10 metaphase spreads were analyzed and additional 20 were counted.
# SCID mouse = assay: Teratoma formation in SCID mice; type: in vivo; conditions: HS181 13, H1 12 passages in O3; H1 7 passages in TeSR2
# Method: Teratoma formation experiments were performed by implantation of approximately 10^6 cells beneath the testicular capsule of a young (7-week-old) severe combined immunodeficiency (SCID) mouse. Three animals per each cell line were used. Teratoma growth was observed by weekly palpation, and the mice were sacrificed eight weeks after the implantation. The teratomas were fixed, and sections were stained with hematoxylin and eosin (HE) or with hematoxylin, eosin and PAS (HE-PAS). […] All animal experiments were performed at the infection-free animal facility of the Karolinska University Hospital in accordance with ethical committee approval.
# ES cells = assay: Embryoid body formation; type: cell-based, human; conditions: cells cultured on LN-521, all three cases
# Method: ES cells from LN-521 coated cell culture dishes were exposed to TrypLE™ Select for one minute at 37° C., 5% CO2, washes two times with a medium, broken into large pieces and cultured in suspension in low adhesion plates. The medium used for this was Knockout DMEM (GIBCO Invitrogen Corporation) supplemented with 2 mM L-glutamine, 20% fetal calf serum (GIBCO Invitrogen Corporation), 0.1 mM β-mercaptoethanol (GIBCO Invitrogen Corporation) and 1% non-essential amino acids (GIBCO Invitrogen Corporation). After 1-2 weeks in suspension, the embryoid bodies were transferred onto gelatin coated tissue cell culture 96-well plates (Sarstedt), cultured for 1-2 weeks, then fixed, stained with antibodies against markers of all three embryonic germ line layers (smooth muscle actin, MAP-2 and α-fetoprotein) and analyzed as described above for immunofluorescence.
substance,measurement,setting,value
"LN-521: protein formed by joining laminin α5, β2 and γ1 chains; human recombinant, produced in HEK293 cells",number of mRNA transcripts of pluripotency markers Oct4 and Nanog compared with Matrigel,human ES cells; FIG. 11,higher numbers of transcripts
same,"expression levels of pluripotency markers Oct4, Nanog and SSEA4",human ES cells; similar to cells on Matrigel passed as small clumps,stable expression levels
same,karyotype,hES cell lines,normal
same,tissues in teratomas formed in SCID mice,SCID mouse,all three germ lineages
same,"embryoid body formation with markers of mesoderm, ectoderm and endoderm",ES cells,retained the competence to form embryoid bodies
